# Laboratory results taken from ChEMBL document CHEMBL1142788, “Synthesis and antibacterial activity of alkyl derivatives of the glycopeptide antibiotic A40926 and their amides” (2005).
# Tests used:
# [1] = system: Enterococcus faecium; assay: Minimum inhibitory concentration against vancomycin-A Enterococcus faecium in the presence of 30% bovine serum (n=1) (range = 2-128mg/L); type: functional
# [2] = system: Staphylococcus epidermidis; assay: Minimum inhibitory concentration against methicillin-sensitive Staphylococcus epidermidis in the presence of 30% bovine serum; type: functional
# [3] = system: Staphylococcus haemolyticus; assay: Minimum inhibitory concentration against Staphylococcus haemolyticus in the presence of 30% bovine serum; type: functional
# [4] = system: Staphylococcus epidermidis; assay: Minimum inhibitory concentration against methicillin-resistant Staphylococcus epidermidis in the presence of 30% bovine serum; type: functional
# [5] = system: Enterococcus faecium; assay: Minimum inhibitory concentration against vancomycin-sensitive Enterococcus faecium in the presence of 30% bovine serum(n=1); type: functional
# [6] = system: Enterococcus faecalis; assay: Minimum inhibitory concentration against vancomycin-sensitive Enterococcus faecalis in the presence of 30% bovine serum(n=3); type: functional
# [7] = system: Staphylococcus aureus; assay: Minimum inhibitory concentration against methicillin-resistant Staphylococcus aureus
# [8] = system: Staphylococcus aureus; assay: Minimum inhibitory concentration against methicillin-sensitive Staphylococcus aureus
# [9] = system: Enterococcus faecalis; assay: Minimum inhibitory concentration against vancomycin-A Enterococcus faecalis (n=4) (range = 4-128mg/L)
# [10] = system: Enterococcus faecium; assay: Minimum inhibitory concentration against vancomycin-A Enterococcus faecium in the presence of 30% bovine serum (n=1) (range = 0.5-16mg/l); type: functional
# [11] = system: Enterococcus faecalis; assay: Minimum inhibitory concentration against vancomycin-sensitive Enterococcus faecalis in the presence of 30% bovine serum (n=3) (range = <0.125-0.25); type: functional
# [12] = system: Enterococcus faecium; assay: Minimum inhibitory concentration against vancomycin-A Enterococcus faecium in the presence of 30% bovine serum (n=1) (range = 2>128mg/l); type: functional
# [13] = system: Enterococcus faecalis; assay: Minimum inhibitory concentration against vancomycin-sensitive Enterococcus faecalis in the presence of 30% bovine serum (n=3) (range = 0.5-1mg/l); type: functional
# [14] = system: Enterococcus faecalis; assay: Minimum inhibitory concentration against vancomycin-A Enterococcus faecalis in the presence of 30% bovine serum (n=4); type: functional
# [15] = system: Enterococcus faecalis; assay: Minimum inhibitory concentration against vancomycin-A Enterococcus faecalis in the presence of 30% bovine serum(n=4) (range = 0.5-8 mg/L); type: functional
# [16] = system: Enterococcus faecium; assay: Minimum inhibitory concentration against vancomycin-A Enterococcus faecium in the presence of 30% bovine serum (n=1); type: functional
# [17] = system: Enterococcus faecalis; assay: Minimum inhibitory concentration against vancomycin-sensitive Enterococcus faecalis in the presence of 30% bovine serum (n=3); type: functional
# [18] = system: Enterococcus faecium; assay: Minimum inhibitory concentration against vancomycin-A Enterococcus faecium in the presence of 30% bovine serum (n=1) (range = 64>128mg/L); type: functional
# [19] = system: Enterococcus faecalis; assay: Minimum inhibitory concentration against vancomycin-sensitive Enterococcus faecalis in the presence of 30% bovine serum(n=3)(range = 0.5-1mg/l); type: functional
Compound,MIC [1],MIC [2],MIC [3],MIC [4],MIC [5],MIC [6],MIC [7],MIC [8],MIC [9],MIC [10],MIC [11],MIC [12],MIC [13],MIC [14],MIC [15],MIC [16],MIC [17],MIC [18],MIC [19]
CN(Cc1ccc2ccccc2c1)[C@H]1C(=O)N[C@@H]2Cc3ccc(cc3)Oc3cc4cc(c3O[C@@H]3OC(C(=O)O)C(O)[C@H](O)C3NCc3ccc5ccccc5c3)Oc3ccc(cc3Cl)[C@@H](O)C3NC(=O)[C@H](NC(=O)[C@@H]4NC(=O)[C@@H](NC2=O)c2cc(cc(O)c2Cl)Oc2cc1ccc2O)c1ccc(O)c(c1)-c1c(O[C@H]2O[C@H](CO)[C@@H](O)[C@H](O)[C@@H]2O)cc(O)cc1[C@@H](C(=O)O)NC3=O (stereo partly drawn),> 128 µg/mL,2 µg/mL,16 µg/mL,16 µg/mL,2 µg/mL,< 0.125 µg/mL,1 µg/mL,2 µg/mL,128 µg/mL,–,–,–,–,–,–,–,–,–,–
CN(C)CCCNC(=O)C1O[C@@H](Oc2c3cc4cc2Oc2ccc(cc2Cl)[C@@H](O)C2NC(=O)[C@H](NC(=O)[C@@H]4NC(=O)[C@H]4NC(=O)[C@@H](Cc5ccc(cc5)O3)NC(=O)[C@H](N(C)Cc3ccc(C(=O)Oc5ccccc5)cc3)c3ccc(O)c(c3)Oc3cc(O)c(Cl)c4c3)c3ccc(O)c(c3)-c3c(O[C@H]4O[C@H](CO)[C@@H](O)[C@H](O)[C@@H]4O)cc(O)cc3[C@@H](C(=O)NCCCN(C)C)NC2=O)C(NCc2ccc(C(=O)Oc3ccccc3)cc2)[C@@H](O)C1O (stereo partly drawn),–,0.25 µg/mL,2 µg/mL,2 µg/mL,0.5 µg/mL,–,1 µg/mL,1 µg/mL,–,> 16 µg/mL,0.25 µg/mL,–,–,–,–,–,–,–,–
CN(Cc1c[nH]c2ccccc12)[C@H]1C(=O)N[C@@H]2Cc3ccc(cc3)Oc3cc4cc(c3O[C@@H]3OC(C(=O)O)C(O)[C@H](O)C3NCc3c[nH]c5ccccc35)Oc3ccc(cc3Cl)[C@@H](O)C3NC(=O)[C@H](NC(=O)[C@@H]4NC(=O)[C@@H](NC2=O)c2cc(cc(O)c2Cl)Oc2cc1ccc2O)c1ccc(O)c(c1)-c1c(O[C@H]2O[C@H](CO)[C@@H](O)[C@H](O)[C@@H]2O)cc(O)cc1[C@@H](C(=O)O)NC3=O (stereo partly drawn),–,64 µg/mL,> 128 µg/mL,128 µg/mL,2 µg/mL,–,2 µg/mL,4 µg/mL,–,–,–,> 128 µg/mL,1 µg/mL,32 µg/mL,–,–,–,–,–
CCCCCCCCOc1ccc(CNC2[C@H](Oc3c4cc5cc3Oc3ccc(cc3Cl)[C@@H](O)C3NC(=O)[C@H](NC(=O)[C@@H]5NC(=O)[C@H]5NC(=O)[C@@H](Cc6ccc(cc6)O4)NC(=O)[C@H](NC)c4ccc(O)c(c4)Oc4cc(O)c(Cl)c5c4)c4ccc(O)c(c4)-c4c(O[C@H]5O[C@H](CO)[C@@H](O)[C@H](O)[C@@H]5O)cc(O)cc4[C@@H](C(=O)NCCCN(C)C)NC3=O)OC(C(=O)NCCCN(C)C)C(O)[C@@H]2O)cc1 (stereo partly drawn),–,0.125 µg/mL,4 µg/mL,–,0.13 µg/mL,–,0.25 µg/mL,0.5 µg/mL,–,–,–,–,–,–,8 µg/mL,0.8 µg/mL,0.25 µg/mL,–,–
CN(Cc1ccc2ccccc2c1)[C@H]1C(=O)N[C@@H]2Cc3ccc(cc3)Oc3cc4cc(c3O[C@@H]3OC(C(=O)O)C(O)[C@H](O)C3N)Oc3ccc(cc3Cl)[C@@H](O)C3NC(=O)[C@H](NC(=O)[C@@H]4NC(=O)[C@@H](NC2=O)c2cc(cc(O)c2Cl)Oc2cc1ccc2O)c1ccc(O)c(c1)-c1c(O[C@H]2O[C@H](CO)[C@@H](O)[C@H](O)[C@@H]2O)cc(O)cc1[C@@H](C(=O)O)NC3=O (stereo partly drawn),–,16 µg/mL,128 µg/mL,32 µg/mL,1 µg/mL,–,2 µg/mL,2 µg/mL,–,–,–,–,–,128 µg/mL,–,–,–,> 128 µg/mL,1 µg/mL
